Test system: recombinant 6xHis-tag HTRA2 and its protein interaction partners in homogenized porcine retina
Test: Co-immunoprecipitation (Co-IP) of HTRA2 protein interaction partners, quantitative LC-MS/MS (iBAQ, volcano plot vs CTRL beads)
Set-up: species or system house swine (Sus scrofa)
Details: 2 µg HTRA2 + 10 µg compound, n = 3, vs CTRL beads
Protocol: The retina extraction and homogenization were performed as already described in previous publications. The use of animal by-products of house swine for scientific research purposes was approved by the Kreisverwaltung Mainz-Bingen in Germany (Identification Code: DE 07 315 0006 21, approved on 13 January 2014). In brief, retinal tissues were extracted from freshly removed porcine eye bulbs (house swine, Sus scrofa domestica Linnaeus, n = 30) provided by the local slaughterhouses (Landmetzgerei Harth, Stadecken-Elsheim, Germany). Afterwards, the retinal tissues were homogenized in 2 mL screw cap microtubes filled with 1.4/2.8 mm ceramic beads and 1 mL Tissue Protein Extraction Reagent (T-PER, Thermo Fisher Scientific, Rockford, IL, USA) using a Percellys® 24 homogenizer (VWR International GmbH, Darmstadt, Germany). The homogenized retinal samples were then centrifuged at 14,000× g for 15 min at 4 °C. The protein-containing supernatant was exchanged in a 100 µL phosphate-buffered saline (PBS) using a 3 kDa Amicon® filtration unit (Millipore, Billerica, MA, USA) and, prior to this, was extensively washed in order to completely remove traces of the T-PER buffer. Afterwards, the samples were pooled and the protein concentration was determined using a Pierce Bicinchoninic Acid (BCA) Protein Assay Kit (Thermo Fisher Scientific, Rockford, IL, USA) according to the manufacturer’s protocol, which provided 5 mg aliquots for further analysis.
The recombinant protein HTRA2 with a C-terminal 6xHis-tag motif (Novoprotein Scientific INC., Summit, NJ, USA) and 40 μL HisPurTM Ni-NTA magnetic beads (Thermo Fisher Scientific, Rockford, IL, USA) were spiked into 5 mg homogenized porcine retina. The experiment comprised of four groups: control homogenate (CTRL group), homogenate with 2 μg recombinant HTRA2 (HTRA2 group), homogenate with 2 μg recombinant HTRA2 and 10 μg UCF-101 (UCF-101 group), and homogenate with 2 μg recombinant HTRA2 and 10 μg synthetic CDR peptide (CDR group). The Co-IP of the recombinant HTRA2 and the enrichment of the respective interaction partners was performed with three independent biological replicates for each group (CTRL, HTRA2, UCF-101, and CDR group). After incubation at 4 °C overnight, the 6xHis-tagged protein HTRA2 with the bounded protein interaction partners (co-immunoprecipitation) was isolated with the previously added HisPurTM Ni-NTA magnetic beads (Thermo Fisher Scientific, Rockford, IL, USA) using a magnetic stand. Each bead group was washed twice with 400 μL PBS and the bounded HTRA2 including the protein interaction partners were eluted by pH shift. The protein concentration of each eluate fraction was determined as described above. Afterwards, 50 μg of each eluate fraction was evaporated using a speed vacuum concentrator (SpeedVac) (Eppendorf, Hamburg, Germany) for 45 min at 30 °C and was stored afterwards at −20 °C.
The protein eluate fractions of each group (50 μg; n = 3 biological replicates per group) were separated by 1D SDS PAGE on 10-well NuPAGE® 12% Bis-Tris gels using NuPAGE™ MOPS SDS Running Buffer 20X (Thermo Fisher Scientific, Rockford, IL, USA). The 1D SDS PAGE was performed with the XCell SureLock^TM Mini-Cell Electrophoresis System (Thermo Fisher Scientific, Rockford, IL, USA) under denatured and reduced conditions, as already described in previous publications. The protein separation was performed for 2 h at 4 °C using 150 V, and then the gels were stained with the Novex Colloidal Blue Staining Kit (Thermo Fisher Scientific, Rockford, IL, USA) according to the manufacturer’s protocol. The next day, the gels were destained overnight and scanned using a DGP-9042 scanner (Brother Industries, Nagoya, Japan) at 600 dpi. In-gel trypsin digestion was performed as already described in previous publications. In brief, each protein lane was divided into 17 slices and was subsequently cut into small pieces. […]

For “ASGYTFTNYGLSWVR [CDR, synthetic peptide encoding a complementary-determining region 1 (CDR1) of polyclonal antibody molecules]”, the “FGF2 (Fibroblast growth factor 2) as significant interaction partner of HTRA2” value (HTRA2 alone: -) was “√ (Proteins fulfilled filtering criteria (p < 0.01; log2 fold change > 1.5))”, the “FTH1 (Ferritin heavy chain) as significant interaction partner of HTRA2” value (HTRA2 alone: -) was “√ (Proteins fulfilled filtering criteria (p < 0.01; log2 fold change > 1.5))” and the “GTF2F2 (General transcription factor IIF subunit 2) as significant interaction partner of HTRA2” value (HTRA2 alone: -) was “- (Proteins failed to fulfill the filtering criteria (p > 0.01; log2 fold change < 1.5))”. The “NAPG (Gamma-soluble NSF attachment protein) as significant interaction partner of HTRA2” value (HTRA2 alone: -) was “√ (Proteins fulfilled filtering criteria (p < 0.01; log2 fold change > 1.5))”, the “PDZD11 (PDZ domain-containing protein 11) as significant interaction partner of HTRA2” value (HTRA2 alone: -) was “√ (Proteins fulfilled filtering criteria (p < 0.01; log2 fold change > 1.5))” and the “PGRMC1 (Membrane-associated progesterone receptor component 1) as significant interaction partner of HTRA2” value (HTRA2 alone: -) was “- (Proteins failed to fulfill the filtering criteria (p > 0.01; log2 fold change < 1.5))”. For the same sequence, the “PLRG1 (Pleiotropic regulator 1) as significant interaction partner of HTRA2” value (HTRA2 alone: -) was “√ (Proteins fulfilled filtering criteria (p < 0.01; log2 fold change > 1.5))”, the “POLR2E (DNA-directed RNA polymerases I, II, and III subunit RPABC1) as significant interaction partner of HTRA2” value (HTRA2 alone: -) was “√ (Proteins fulfilled filtering criteria (p < 0.01; log2 fold change > 1.5))” and the “PPA1 (Inorganic pyrophosphatase) as significant interaction partner of HTRA2” value (HTRA2 alone: -) was “- (Proteins failed to fulfill the filtering criteria (p > 0.01; log2 fold change < 1.5))”. For the same sequence, the “SFRP1 (Secreted frizzled-related protein 1) as significant interaction partner of HTRA2” value (HTRA2 alone: -) was “√ (Proteins fulfilled filtering criteria (p < 0.01; log2 fold change > 1.5))”, the “TUBA1C (Tubulin alpha-1C chain) as significant interaction partner of HTRA2” value (HTRA2 alone: -) was “√ (Proteins fulfilled filtering criteria (p < 0.01; log2 fold change > 1.5))” and the “UBE2N (Ubiquitin-conjugating enzyme E2 N) as significant interaction partner of HTRA2” value (HTRA2 alone: -) was “√ (Proteins fulfilled filtering criteria (p < 0.01; log2 fold change > 1.5))”. The “CDC42 (Cell division control protein 42 homolog) as significant interaction partner of HTRA2” value (HTRA2 alone: n.d.) was “√ (Proteins fulfilled filtering criteria (p < 0.01; log2 fold change > 1.5))”, the “COPE (Coatomer subunit epsilon) as significant interaction partner of HTRA2” value (HTRA2 alone: n.d.) was “- (Proteins failed to fulfill the filtering criteria (p > 0.01; log2 fold change < 1.5))” and the “MRPL2 (39S ribosomal protein L2, mitochondrial) as significant interaction partner of HTRA2” value (HTRA2 alone: n.d.) was “√ (Proteins fulfilled filtering criteria (p < 0.01; log2 fold change > 1.5))”. The “SNX3 (Sorting nexin-3) as significant interaction partner of HTRA2” value (HTRA2 alone: n.d.) was “√ (Proteins fulfilled filtering criteria (p < 0.01; log2 fold change > 1.5))”, the “SOWAHA (Ankyrin repeat domain-containing protein SOWAHA) as significant interaction partner of HTRA2” value (HTRA2 alone: n.d.) was “√ (Proteins fulfilled filtering criteria (p < 0.01; log2 fold change > 1.5))” and the “TIMM13 (Mitochondrial import inner membrane translocase subunit Tim13) as significant interaction partner of HTRA2” value (HTRA2 alone: n.d.) was “√ (Proteins fulfilled filtering criteria (p < 0.01; log2 fold change > 1.5))”. The “TUBB8 (Tubulin beta-8 chain) as significant interaction partner of HTRA2” value (HTRA2 alone: n.d.) was “√ (Proteins fulfilled filtering criteria (p < 0.01; log2 fold change > 1.5))”, the “AGPS (Alkyldihydroxyacetonephosphate synthase, peroxisomal) as significant interaction partner of HTRA2” value (HTRA2 alone: √) was “√ (Proteins fulfilled filtering criteria (p < 0.01; log2 fold change > 1.5))” and the “ANK2 (Ankyrin-2) as significant interaction partner of HTRA2” value (HTRA2 alone: √) was “- (Proteins failed to fulfill the filtering criteria (p > 0.01; log2 fold change < 1.5))”. The “AP2A1 (AP-2 complex subunit alpha-1) as significant interaction partner of HTRA2” value (HTRA2 alone: √) was “- (Proteins failed to fulfill the filtering criteria (p > 0.01; log2 fold change < 1.5))”, the “AP3D1 (AP-3 complex subunit delta-1) as significant interaction partner of HTRA2” value (HTRA2 alone: √) was “- (Proteins failed to fulfill the filtering criteria (p > 0.01; log2 fold change < 1.5))” and the “AUH (Methylglutaconyl-CoA hydratase, mitochondrial) as significant interaction partner of HTRA2” value (HTRA2 alone: √) was “√ (Proteins fulfilled filtering criteria (p < 0.01; log2 fold change > 1.5))”. For the same sequence, the “CS (Citrate synthase, mitochondrial) as significant interaction partner of HTRA2” value (HTRA2 alone: √) was “- (Proteins failed to fulfill the filtering criteria (p > 0.01; log2 fold change < 1.5))”, the “CSTB (Cystatin-B) as significant interaction partner of HTRA2” value (HTRA2 alone: √) was “√ (Proteins fulfilled filtering criteria (p < 0.01; log2 fold change > 1.5))” and the “DNAJA3 (DnaJ homolog subfamily A member 3, mitochondrial) as significant interaction partner of HTRA2” value (HTRA2 alone: √) was “- (Proteins failed to fulfill the filtering criteria (p > 0.01; log2 fold change < 1.5))”. The “DTD1 (D-aminoacyl-tRNA deacylase 1) as significant interaction partner of HTRA2” value (HTRA2 alone: √) was “- (Proteins failed to fulfill the filtering criteria (p > 0.01; log2 fold change < 1.5))”, the “EIF2S3 (Eukaryotic translation initiation factor 2 subunit 3) as significant interaction partner of HTRA2” value (HTRA2 alone: √) was “- (Proteins failed to fulfill the filtering criteria (p > 0.01; log2 fold change < 1.5))” and the “FAM30A (Putative uncharacterized protein FAM30A) as significant interaction partner of HTRA2” value (HTRA2 alone: √) was “- (Proteins failed to fulfill the filtering criteria (p > 0.01; log2 fold change < 1.5))”. For the same sequence, the “FLNA (Filamin-A) as significant interaction partner of HTRA2” value (HTRA2 alone: √) was “- (Proteins failed to fulfill the filtering criteria (p > 0.01; log2 fold change < 1.5))”, the “GDI1 (Rab GDP dissociation inhibitor alpha) as significant interaction partner of HTRA2” value (HTRA2 alone: √) was “√ (Proteins fulfilled filtering criteria (p < 0.01; log2 fold change > 1.5))” and the “GLO1 (Lactoylglutathione lyase) as significant interaction partner of HTRA2” value (HTRA2 alone: √) was “√ (Proteins fulfilled filtering criteria (p < 0.01; log2 fold change > 1.5))”. The “GNL1 (Guanine nucleotide-binding protein-like 1) as significant interaction partner of HTRA2” value (HTRA2 alone: √) was “- (Proteins failed to fulfill the filtering criteria (p > 0.01; log2 fold change < 1.5))”, the “HAGH (Hydroxyacylglutathione hydrolase, mitochondrial) as significant interaction partner of HTRA2” value (HTRA2 alone: √) was “- (Proteins failed to fulfill the filtering criteria (p > 0.01; log2 fold change < 1.5))” and the “HTRA2 (Serine protease HTRA2, mitochondrial; target protein) enriched” value (HTRA2 alone: √) was “√ (Proteins fulfilled filtering criteria (p < 0.01; log2 fold change > 1.5))”. For the same sequence, the “HYOU1 (Hypoxia up-regulated protein 1) as significant interaction partner of HTRA2” value (HTRA2 alone: √) was “- (Proteins failed to fulfill the filtering criteria (p > 0.01; log2 fold change < 1.5))”, the “MCTS1 (Malignant T-cell-amplified sequence 1) as significant interaction partner of HTRA2” value (HTRA2 alone: √) was “√ (Proteins fulfilled filtering criteria (p < 0.01; log2 fold change > 1.5))” and the “ME2 (NAD-dependent malic enzyme, mitochondrial) as significant interaction partner of HTRA2” value (HTRA2 alone: √) was “- (Proteins failed to fulfill the filtering criteria (p > 0.01; log2 fold change < 1.5))”. The “NCKAP1 (Nck-associated protein 1) as significant interaction partner of HTRA2” value (HTRA2 alone: √) was “- (Proteins failed to fulfill the filtering criteria (p > 0.01; log2 fold change < 1.5))”, the “PACS1 (Phosphofurin acidic cluster sorting protein 1) as significant interaction partner of HTRA2” value (HTRA2 alone: √) was “- (Proteins failed to fulfill the filtering criteria (p > 0.01; log2 fold change < 1.5))” and the “POTEE (POTE ankyrin domain family member E) as significant interaction partner of HTRA2” value (HTRA2 alone: √) was “- (Proteins failed to fulfill the filtering criteria (p > 0.01; log2 fold change < 1.5))”. The “PSMC1 (26S proteasome regulatory subunit 4) as significant interaction partner of HTRA2” value (HTRA2 alone: √) was “- (Proteins failed to fulfill the filtering criteria (p > 0.01; log2 fold change < 1.5))”, the “PTGES3 (Prostaglandin E synthase 3) as significant interaction partner of HTRA2” value (HTRA2 alone: √) was “√ (Proteins fulfilled filtering criteria (p < 0.01; log2 fold change > 1.5))” and the “RPS12 (40S ribosomal protein S12) as significant interaction partner of HTRA2” value (HTRA2 alone: √) was “- (Proteins failed to fulfill the filtering criteria (p > 0.01; log2 fold change < 1.5))”. The “SPTBN1 (Spectrin beta chain, non-erythrocytic 1) as significant interaction partner of HTRA2” value (HTRA2 alone: √) was “- (Proteins failed to fulfill the filtering criteria (p > 0.01; log2 fold change < 1.5))” and the “UBE2V1 (Ubiquitin-conjugating enzyme E2 variant 1) as significant interaction partner of HTRA2” value (HTRA2 alone: √) was “√ (Proteins fulfilled filtering criteria (p < 0.01; log2 fold change > 1.5))”.

From PMC8427973, “Regulation of the HTRA2 Protease Activity by an Inhibitory Antibody-Derived Peptide Ligand and the Influence on HTRA2-Specific Protein Interaction Networks in Retinal Tissues” (Biomedicines, 2021)
